Where “and” joins values, the source holds several entries; their conditions need not be identical. Identical values can stand only once. Like-named read-outs stand apart in the source and are kept apart here.
Experiments:
[1] = Ocular pharmacokinetics of formulations, Example 20-5; format: in vivo, Dutch Belted rabbits; conditions: TRIS 0.60%, glycerol 2%, HEC 0.2%, HPMC 0.08%, Vitamin K3 1 μM, 1 hr post dose on Day 5
Method: The study design (Table 19-1) consisted of forty-seven (47) Dutch Belted rabbits, each receiving a 30 μL bilateral topical ocular dose. Various suspension formulations of the present application were evaluated and compared against a cyclodextrin-based eye drops solution (Control Group 1, Table 19-1). Formula II or Compound-I was used in the test suspensions as well as the Eye Drops solution.
Ocular sampling occurred one hour following the first daily dose on Day 5 for all groups. Whole blood samples using K2EDTA as an anticoagulant were collected from all animals on Day 5, 1 hour post dose. The whole blood was placed on ice until samples were spun in a centrifuge to separate the plasma. Aqueous humor, conjunctiva, cornea, central retina, peripheral retina, central choroid, and peripheral choroid samples were collected following necropsy. Samples were then frozen at −70° C. or lower. For all Groups 1-15, plasma, central retina, central choroid, and cornea samples were assayed. For Group 5 only, samples were analyzed for Vitamin K3.
An analytical method for the analysis of Vitamin K3 was determined in plasma, central retina, central choroid, and cornea samples from Group 5 animals. A calibration curve prepared in control vitreous humor was used to determine the concentration of Vitamin K3. Internal standard (IS) responses were inconsistent for the central choroid and plasma samples. Thus, positive plasma results were likely due to the reduced IS response.

pathologic angiogenesis = assay: Pathologic angiogenesis, rat growth plate model, systemic administration; format: in vivo
HUVECs = assay: Inhibition of VEGF-stimulated mitogenesis in HUVECs; format: cell-based; conditions: Homo sapiens, HUVEC
MINK1 = MINK1 (Homo sapiens, UniProt Q8N4C8); assay: In vitro inhibition of tyrosine kinases; format: biochemical; conditions: read-out: Mean % Inhibition at 1 μM Compound-I; 1 μM (568.9 ng/mL)
MINK1, sequence (Q8N4C8 whole entry, species assumed): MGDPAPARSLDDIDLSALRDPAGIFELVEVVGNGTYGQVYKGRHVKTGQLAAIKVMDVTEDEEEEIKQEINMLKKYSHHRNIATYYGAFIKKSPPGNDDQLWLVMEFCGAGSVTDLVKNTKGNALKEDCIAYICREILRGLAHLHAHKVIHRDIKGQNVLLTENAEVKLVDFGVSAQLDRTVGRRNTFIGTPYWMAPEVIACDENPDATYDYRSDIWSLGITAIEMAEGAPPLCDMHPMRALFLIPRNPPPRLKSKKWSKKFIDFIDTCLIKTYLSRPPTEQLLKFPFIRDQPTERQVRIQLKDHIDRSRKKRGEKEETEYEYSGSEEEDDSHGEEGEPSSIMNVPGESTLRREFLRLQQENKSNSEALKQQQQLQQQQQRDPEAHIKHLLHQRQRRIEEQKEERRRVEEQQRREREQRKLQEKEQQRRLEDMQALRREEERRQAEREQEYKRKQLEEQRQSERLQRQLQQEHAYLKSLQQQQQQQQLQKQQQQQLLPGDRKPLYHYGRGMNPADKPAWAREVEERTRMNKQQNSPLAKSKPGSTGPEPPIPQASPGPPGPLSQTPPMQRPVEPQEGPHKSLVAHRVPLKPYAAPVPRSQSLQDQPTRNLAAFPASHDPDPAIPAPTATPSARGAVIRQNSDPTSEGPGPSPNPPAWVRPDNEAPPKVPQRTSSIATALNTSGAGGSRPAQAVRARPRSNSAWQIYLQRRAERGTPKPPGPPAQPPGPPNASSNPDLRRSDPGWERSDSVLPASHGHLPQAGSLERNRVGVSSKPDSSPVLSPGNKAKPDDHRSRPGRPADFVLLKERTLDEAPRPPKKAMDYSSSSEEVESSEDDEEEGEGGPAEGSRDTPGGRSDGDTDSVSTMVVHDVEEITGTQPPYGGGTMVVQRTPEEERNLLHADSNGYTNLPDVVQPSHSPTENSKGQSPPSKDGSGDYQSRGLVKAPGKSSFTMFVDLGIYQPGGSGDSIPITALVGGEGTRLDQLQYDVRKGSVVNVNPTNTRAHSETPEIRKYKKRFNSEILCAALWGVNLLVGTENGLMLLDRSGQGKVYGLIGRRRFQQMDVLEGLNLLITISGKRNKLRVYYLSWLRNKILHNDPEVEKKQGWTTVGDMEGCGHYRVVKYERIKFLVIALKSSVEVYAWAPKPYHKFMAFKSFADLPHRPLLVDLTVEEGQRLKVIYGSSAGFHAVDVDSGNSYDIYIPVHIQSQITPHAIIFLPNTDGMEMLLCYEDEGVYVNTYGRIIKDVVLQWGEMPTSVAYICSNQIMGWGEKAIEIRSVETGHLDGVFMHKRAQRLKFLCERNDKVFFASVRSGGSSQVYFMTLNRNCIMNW

ABL1 Y253F = ABL1 Y253F (Homo sapiens, UniProt P00519, Y253F); assay: In vitro inhibition of tyrosine kinases; format: biochemical; conditions: read-out: Mean % Inhibition at 1 μM Compound-I; 1 μM (568.9 ng/mL)

Cl.NC(=O)c1c(OCc2c(F)cc(Br)cc2F)nsc1NC(=O)NCCCCN1CCCC1 [Compound-I, 3-[(4-bromo-2,6-difluorophenyl)methoxy]-5-[[[[4-(1-pyrrolidinyl)butyl]amino]carbonyl]amino]-4-isothiazolecarboxamide hydrochloride] gave a concentration at 1 h ([1]; Group 2: 4 mg/mL suspension, 30 μm particles, pH 6, QD for 4 days, read-out: Central Retina concentration) of 0.0506 µM, a concentration at 1 h ([1]; Group 2: 4 mg/mL suspension, 30 μm particles, pH 6, QD for 4 days, read-out: Cornea concentration) of 7.48 µM and a Plasma concentration ([1]; Group 3: 4 mg/mL suspension, 3 μm particles, pH 6, QD for 4 days) of 0.00704 µM. It also gave a concentration at 1 h ([1]; Group 3: 4 mg/mL suspension, 3 μm particles, pH 6, QD for 4 days, read-out: Central Choroid concentration) of 0.159 µM, a concentration at 1 h ([1]; Group 3: 4 mg/mL suspension, 3 μm particles, pH 6, QD for 4 days, read-out: Central Retina concentration) of 0.0928 µM and a concentration at 1 h ([1]; Group 3: 4 mg/mL suspension, 3 μm particles, pH 6, QD for 4 days, read-out: Cornea concentration) of 10.2 µM. The Plasma concentration ([1]; Group 4: 4 mg/mL suspension (Control), 50 μm particles (Native), pH 6, QD for 4 days) was 0.00598 µM, the concentration at 1 h ([1]; Group 4: 4 mg/mL suspension (Control), 50 μm particles (Native), pH 6, QD for 4 days, read-out: Central Choroid concentration) was 0.128 µM and the concentration at 1 h ([1]; Group 4: 4 mg/mL suspension (Control), 50 μm particles (Native), pH 6, QD for 4 days, read-out: Central Retina concentration) was 0.0735 µM. It also gave a concentration at 1 h ([1]; Group 4: 4 mg/mL suspension (Control), 50 μm particles (Native), pH 6, QD for 4 days, read-out: Cornea concentration) of 3.93 µM, a Plasma concentration ([1]; Group 6: 4 mg/mL suspension, 50 μm particles, pH 6, BID for 4 days) of 0.00415 µM and a concentration at 1 h ([1]; Group 6: 4 mg/mL suspension, 50 μm particles, pH 6, BID for 4 days, read-out: Central Choroid concentration) of 0.199 µM. For the same compound, the concentration at 1 h ([1]; Group 6: 4 mg/mL suspension, 50 μm particles, pH 6, BID for 4 days, read-out: Central Retina concentration) was 0.0441 µM, the concentration at 1 h ([1]; Group 6: 4 mg/mL suspension, 50 μm particles, pH 6, BID for 4 days, read-out: Cornea concentration) was 6.41 µM and the Plasma concentration ([1]; Group 8: 1 mg/mL suspension, 50 μm particles, pH 6, BID for 4 days) was 0.00211 µM. For the same compound, the concentration at 1 h ([1]; Group 8: 1 mg/mL suspension, 50 μm particles, pH 6, BID for 4 days, read-out: Central Choroid concentration) was 0.0708 µM, the concentration at 1 h ([1]; Group 8: 1 mg/mL suspension, 50 μm particles, pH 6, BID for 4 days, read-out: Central Retina concentration) was 0.0342 µM and the concentration at 1 h ([1]; Group 8: 1 mg/mL suspension, 50 μm particles, pH 6, BID for 4 days, read-out: Cornea concentration) was 1.72 µM. For the same compound, the Plasma concentration ([1]; Group 10: 2 mg/mL suspension, 50 μm particles, pH 6, BID for 4 days) was 0.00376 µM, the concentration at 1 h ([1]; Group 10: 2 mg/mL suspension, 50 μm particles, pH 6, BID for 4 days, read-out: Central Retina concentration) was 0.0507 µM and the Plasma concentration ([1]; Group 13 (different batch of Compound-I): 4 mg/mL suspension, 50 μm particles, pH 6, QD for 4 days) was 0.00709 µM. It also gave a concentration at 1 h ([1]; Group 13 (different batch of Compound-I): 4 mg/mL suspension, 50 μm particles, pH 6, QD for 4 days, read-out: Central Retina concentration) of 0.0766 µM, a concentration at 1 h ([1]; Group 13 (different batch of Compound-I): 4 mg/mL suspension, 50 μm particles, pH 6, QD for 4 days, read-out: Cornea concentration) of 8.55 µM and a Plasma concentration ([1]; Group 14 (different batch of Compound-I): 4 mg/mL suspension, 50 μm particles, pH 6, QD for 4 days) of 0.00268 µM. The concentration at 1 h ([1]; Group 14 (different batch of Compound-I): 4 mg/mL suspension, 50 μm particles, pH 6, QD for 4 days, read-out: Central Choroid concentration) was 0.203 µM, the concentration at 1 h ([1]; Group 14 (different batch of Compound-I): 4 mg/mL suspension, 50 μm particles, pH 6, QD for 4 days, read-out: Central Retina concentration) was 0.0384 µM and the concentration at 1 h ([1]; Group 14 (different batch of Compound-I): 4 mg/mL suspension, 50 μm particles, pH 6, QD for 4 days, read-out: Cornea concentration) was 3.88 µM. For the same compound, the Plasma concentration ([1]; Group 15 (different batch of Compound-I): 4 mg/mL suspension, 50 μm particles, pH 6, QD for 4 days) was 0.00469 µM, the concentration at 1 h ([1]; Group 15 (different batch of Compound-I): 4 mg/mL suspension, 50 μm particles, pH 6, QD for 4 days, read-out: Central Choroid concentration) was 0.196 µM and the concentration at 1 h ([1]; Group 15 (different batch of Compound-I): 4 mg/mL suspension, 50 μm particles, pH 6, QD for 4 days, read-out: Central Retina concentration) was 0.0630 µM. The concentration at 1 h ([1]; Group 15 (different batch of Compound-I): 4 mg/mL suspension, 50 μm particles, pH 6, QD for 4 days, read-out: Cornea concentration) was 4.23 µM, the Pathologic angiogenesis (pathologic angiogenesis) was “inhibit” and the IC50 (HUVECs) was 14.1 nM and 0.008 µg/mL. It also gave an inhibition at 1 µM (MINK1) of 100% and an inhibition at 1 µM (ABL1 Y253F) of 93%.
